# Earlier results as cited in PubChem BioAssay AID1259409 (Chemical Carcinogenesis Research Information System (CCRIS), 2018).
# System: rodent chemically induced tumor inhibition, incidence and multiplicity
# Test: CCRIS tumor inhibitor studies
structure (smiles),measurement,setting,value
C=CCc1cc(OC)c2c(c1)OCO2,"tumour outcome (control, treated, inhibition, significance)","Carcinogen: BENZO[A]PYRENE, 50-32-8, Dose [Inhibitor]: 0, 10 MG SUSPENDED IN 0.3 ML COTTONSEED OIL 3/WK FOR 4 WK ON DAYS OTHER THAN THE CARCINOGEN TREATMENT, 3 ADDITIONAL DOSE, Route [Inhibitor]: GAVAGE, Species: MOUSE, Strain/Sex: STRAIN-A/FEMALE, Target Tissue: Type of Lesion: FORESTOMACH: TUMOR, Dose [Carcinogen]: 1 MG IN 0.3 ML COTTONSEED OIL 2/WK FOR 4 WK, Promoter: NONE USED","12/17 (71%), 13/18 (72%), -1%, not significant"
same,"tumour outcome (control, treated, inhibition, significance)","Carcinogen: BENZO[A]PYRENE, 50-32-8, Dose [Inhibitor]: 0, 10 MG SUSPENDED IN 0.3 ML COTTONSEED OIL 3/WK FOR 4 WK ON DAYS OTHER THAN THE CARCINOGEN TREATMENT, 3 ADDITIONAL DOSE, Route [Inhibitor]: GAVAGE, Species: MOUSE, Strain/Sex: STRAIN-A/FEMALE, Target Tissue: Type of Lesion: LUNG: TUMOR, Dose [Carcinogen]: 1 MG IN 0.3 ML COTTONSEED OIL 2/WK FOR 4 WK, Promoter: NONE USED","17/17 (100%), 18/18 (100%), 0%, not significant"
O=c1cc(-c2ccccc2)oc2ccccc12,"tumour outcome (control, treated, inhibition, significance)","Carcinogen: 7,12-DIMETHYLBENZ[A]ANTHRACENE, 57-97-6, Dose [Inhibitor]: 0, 45 NMOL IN 0.2 ML ACETONE APPLIED 5 MIN PRIOR TO CARCINOGEN (STUDY DURATION: 21 WK), Route [Inhibitor]: DERMAL, Species: MOUSE, Strain/Sex: SENCAR/FEMALE, Target Tissue: Type of Lesion: SKIN: PAPILLOMA, Dose [Carcinogen]: 10 NMOL IN 0.2 ML ACETONE ONCE, Promoter: 12-O-TETRADECANOYLPHORBOL-13-ACETATE, 16561-29-8","79%, 93%, -18%, not calculated"
same,"tumour outcome (control, treated, inhibition, significance)","Carcinogen: 7,12-DIMETHYLBENZ[A]ANTHRACENE, 57-97-6, Dose [Inhibitor]: 0, 450 NMOL IN 0.2 ML ACETONE APPLIED 5 MIN PRIOR TO CARCINOGEN (STUDY DURATION: 21 WK), Route [Inhibitor]: DERMAL, Species: MOUSE, Strain/Sex: SENCAR/FEMALE, Target Tissue: Type of Lesion: SKIN: PAPILLOMA, Dose [Carcinogen]: 10 NMOL IN 0.2 ML ACETONE ONCE, Promoter: 12-O-TETRADECANOYLPHORBOL-13-ACETATE, 16561-29-8","79%, 100%, -27%, not calculated"
same,"tumour outcome (control, treated, inhibition, significance)","Carcinogen: 7,12-DIMETHYLBENZ[A]ANTHRACENE, 57-97-6, Dose [Inhibitor]: 0, 4500 NMOL IN 0.2 ML ACETONE APPLIED 5 MIN PRIOR TO CARCINOGEN (STUDY DURATION: 21 WK), Route [Inhibitor]: DERMAL, Species: MOUSE, Strain/Sex: SENCAR/FEMALE, Target Tissue: Type of Lesion: SKIN: PAPILLOMA, Dose [Carcinogen]: 10 NMOL IN 0.2 ML ACETONE ONCE, Promoter: 12-O-TETRADECANOYLPHORBOL-13-ACETATE, 16561-29-8","79%, 80%, -1%, not calculated"
same,"tumour outcome (control, treated, inhibition, significance)","Carcinogen: 7,14-DIMETHYLBENZO[A,H]ANTHRACENE, 35335-07-0, Dose [Inhibitor]: 0, 45 NMOL IN 0.2 ML ACETONE APPLIED 5 MIN PRIOR TO CARCINOGEN (STUDY DURATION: 21 WK), Route [Inhibitor]: DERMAL, Species: MOUSE, Strain/Sex: SENCAR/FEMALE, Target Tissue: Type of Lesion: SKIN: PAPILLOMA, Dose [Carcinogen]: 47.5 NMOL IN 0.2 ML ACETONE ONCE, Promoter: 12-O-TETRADECANOYLPHORBOL-13-ACETATE, 16561-29-8","97%, 97%, 0%"
same,"tumour outcome (control, treated, inhibition, significance)","Carcinogen: 7,14-DIMETHYLBENZO[A,H]ANTHRACENE, 35335-07-0, Dose [Inhibitor]: 0, 450 NMOL IN 0.2 ML ACETONE APPLIED 5 MIN PRIOR TO CARCINOGEN (STUDY DURATION: 21 WK), Route [Inhibitor]: DERMAL, Species: MOUSE, Strain/Sex: SENCAR/FEMALE, Target Tissue: Type of Lesion: SKIN: PAPILLOMA, Dose [Carcinogen]: 47.5 NMOL IN 0.2 ML ACETONE ONCE, Promoter: 12-O-TETRADECANOYLPHORBOL-13-ACETATE, 16561-29-8","97%, 97%, 0%"
same,"tumour outcome (control, treated, inhibition, significance)","Carcinogen: 7,14-DIMETHYLBENZO[A,H]ANTHRACENE, 35335-07-0, Dose [Inhibitor]: 0, 4500 NMOL IN 0.2 ML ACETONE APPLIED 5 MIN PRIOR TO CARCINOGEN (STUDY DURATION: 21 WK), Route [Inhibitor]: DERMAL, Species: MOUSE, Strain/Sex: SENCAR/FEMALE, Target Tissue: Type of Lesion: SKIN: PAPILLOMA, Dose [Carcinogen]: 47.5 NMOL IN 0.2 ML ACETONE ONCE, Promoter: 12-O-TETRADECANOYLPHORBOL-13-ACETATE, 16561-29-8","97%, 68%, 30%, not calculated"
same,"tumour outcome (control, treated, inhibition, significance)","Carcinogen: DIBENZO[A,H]ANTHRACENE, 53-70-3, Dose [Inhibitor]: 0, 45 NMOL IN 0.2 ML ACETONE APPLIED 5 MIN PRIOR TO CARCINOGEN (STUDY DURATION: 21 WK), Route [Inhibitor]: DERMAL, Species: MOUSE, Strain/Sex: SENCAR/FEMALE, Target Tissue: Type of Lesion: SKIN: PAPILLOMA, Dose [Carcinogen]: 200 NMOL IN 0.2 ML ACETONE ONCE, Promoter: 12-O-TETRADECANOYLPHORBOL-13-ACETATE, 16561-29-8","100%, 93%, 7%, not calculated"
same,"tumour outcome (control, treated, inhibition, significance)","Carcinogen: DIBENZO[A,H]ANTHRACENE, 53-70-3, Dose [Inhibitor]: 0, 450 NMOL IN 0.2 ML ACETONE APPLIED 5 MIN PRIOR TO CARCINOGEN (STUDY DURATION: 21 WK), Route [Inhibitor]: DERMAL, Species: MOUSE, Strain/Sex: SENCAR/FEMALE, Target Tissue: Type of Lesion: SKIN: PAPILLOMA, Dose [Carcinogen]: 200 NMOL IN 0.2 ML ACETONE ONCE, Promoter: 12-O-TETRADECANOYLPHORBOL-13-ACETATE, 16561-29-8","100%, 86%, 14%, not calculated"
same,"tumour outcome (control, treated, inhibition, significance)","Carcinogen: DIBENZO[A,H]ANTHRACENE, 53-70-3, Dose [Inhibitor]: 0, 4500 NMOL IN 0.2 ML ACETONE APPLIED 5 MIN PRIOR TO CARCINOGEN (STUDY DURATION: 21 WK), Route [Inhibitor]: DERMAL, Species: MOUSE, Strain/Sex: SENCAR/FEMALE, Target Tissue: Type of Lesion: SKIN: PAPILLOMA, Dose [Carcinogen]: 200 NMOL IN 0.2 ML ACETONE ONCE, Promoter: 12-O-TETRADECANOYLPHORBOL-13-ACETATE, 16561-29-8","100%, 93%, 7%, not calculated"
same,"tumour outcome (control, treated, inhibition, significance)","Dose [Inhibitor]: 0, 1000 PPM IN DIET BEGINNING 8 WK PRIOR TO CARCINOGEN AND CONTINUING FOR 6 WK POST CARCINOGEN (STUDY DURATION: 68 WK), Route [Inhibitor]: ORAL, Species: FISH, Strain/Sex: RAINBOW TROUT, Target Tissue: Type of Lesion: LIVER: HEPATOCELLULAR CARCINOMA, Dose [Carcinogen]: 20 PPB IN DIET FOR 2 WK, Promoter: NONE USED","43/118 (36%), 45/120 (38%), -5%, not significant"
O[C@@H](CS)[C@@H](O)CS,"tumour outcome (control, treated, inhibition, significance)","Carcinogen: TRANS-5-AMINO-3-[2-(5-NITRO-2-FURYL)VINYL]-1,2,4-OXADIAZOLE;SQL8506, 28754-68-9, Carcinogen: TRANS-5-AMINO-3-[2-(5-NITRO-2-FURYL)VINYL]-1,2,4-OXADIAZOLE;SQL8506, 28754-68-9, Dose [Inhibitor]: 100 MG/KG 16 HR BEFORE THE 1ST CARCINOGEN DOSE FOLLOWED BY ADDITIONAL INJECTIONS IMMEDIATELY BEFORE EACH DOSE OF CARCINO, Route [Inhibitor]: INTRAPERITONEAL, Species: MOUSE, Strain/Sex: CD-1/FEMALE, Target Tissue: Type of Lesion: HEMATOPOIETIC SYSTEM: MYELOID LEUKEMIA, Dose [Carcinogen]: 1 G/KG 2/D FOR 5 D EVERY 4 WK FOR 3 COURSES OF TREATMENT, Promoter: NONE USED","7/137 (5%), 0/30 (0%), 100%, not calculated"
same,"tumour outcome (control, treated, inhibition, significance)","Carcinogen: TRANS-5-AMINO-3-[2-(5-NITRO-2-FURYL)VINYL]-1,2,4-OXADIAZOLE;SQL8506, 28754-68-9, Carcinogen: TRANS-5-AMINO-3-[2-(5-NITRO-2-FURYL)VINYL]-1,2,4-OXADIAZOLE;SQL8506, 28754-68-9, Dose [Inhibitor]: 100 MG/KG 16 HR BEFORE THE 1ST CARCINOGEN DOSE FOLLOWED BY ADDITIONAL INJECTIONS IMMEDIATELY BEFORE EACH DOSE OF CARCINO, Route [Inhibitor]: INTRAPERITONEAL, Species: MOUSE, Strain/Sex: CD-1/FEMALE, Target Tissue: Type of Lesion: LYMPHOID TISSUE: NONTHYMIC LYMPHOMA, Dose [Carcinogen]: 1 G/KG 2/D FOR 5 D EVERY 4 WK FOR 3 COURSES OF TREATMENT, Promoter: NONE USED","8/137 (6%), 2/30 (7%), -17%, not calculated"
same,"tumour outcome (control, treated, inhibition, significance)","Carcinogen: TRANS-5-AMINO-3-[2-(5-NITRO-2-FURYL)VINYL]-1,2,4-OXADIAZOLE;SQL8506, 28754-68-9, Carcinogen: TRANS-5-AMINO-3-[2-(5-NITRO-2-FURYL)VINYL]-1,2,4-OXADIAZOLE;SQL8506, 28754-68-9, Dose [Inhibitor]: 100 MG/KG 16 HR BEFORE THE 1ST CARCINOGEN DOSE FOLLOWED BY ADDITIONAL INJECTIONS IMMEDIATELY BEFORE EACH DOSE OF CARCINO, Route [Inhibitor]: INTRAPERITONEAL, Species: MOUSE, Strain/Sex: CD-1/FEMALE, Target Tissue: Type of Lesion: LYMPHOID TISSUE: THYMIC LYMPHOMA, Dose [Carcinogen]: 1 G/KG 2/D FOR 5 D EVERY 4 WK FOR 3 COURSES OF TREATMENT, Promoter: NONE USED","22/137 (16%), 4/30 (13%), 19%, not calculated"
same,"tumour outcome (control, treated, inhibition, significance)","Carcinogen: TRANS-5-AMINO-3-[2-(5-NITRO-2-FURYL)VINYL]-1,2,4-OXADIAZOLE;SQL8506, 28754-68-9, Carcinogen: TRANS-5-AMINO-3-[2-(5-NITRO-2-FURYL)VINYL]-1,2,4-OXADIAZOLE;SQL8506, 28754-68-9, Dose [Inhibitor]: 100 MG/KG 16 HR BEFORE THE 1ST CARCINOGEN DOSE FOLLOWED BY ADDITIONAL INJECTIONS IMMEDIATELY BEFORE EACH DOSE OF CARCINO, Route [Inhibitor]: INTRAPERITONEAL, Species: MOUSE, Strain/Sex: CD-1/FEMALE, Target Tissue: Type of Lesion: STOMACH: SQUAMOUS CARCINOMA, Dose [Carcinogen]: 1 G/KG 2/D FOR 5 D EVERY 4 WK FOR 3 COURSES OF TREATMENT, Promoter: NONE USED","60/137 (44%), 18/30 (60%), -36%, not calculated"
